As a reminder, the Cmax is the peak of the concentration-time curve.

The values below come from patent US11919865B2, “Processes for preparing AG-10, its intermediates, and salts thereof” (EIDOS THERAPEUTICS, INC., priority 2017, dated 2024).

The nature of data set [1]: Bioavailability of AG-10, mean plasma concentration after intravenous and oral dosing. The class given is in vivo. The settings on record: 1 mg/kg intravenously and 5 mg/kg orally, plasma 0-24 hours. How it is done:
The mean plasma concentration of AG-10 was measured from 0-24 hours after dosing with 1 mg/kg of AG-10 intravenously and 5 mg/kg of AG-10 orally. The calculated pharmacokinetic data is shown in FIG. 2B, FIG. 2D, and FIG. 2F.

Data set [2] can be described thus: Bioavailability of AG-10 in male and female dogs at different oral dosing levels. Type of data set: in vivo. The settings on record: oral 5 mg/kg or 20 mg/kg, plasma 2-24 hours. How it is done:
The mean plasma concentration of AG-10 was measured from 2-24 hours after oral dosing with 5 mg/kg or 20 mg/kg of AG-10. The calculated pharmacokinetic data is shown in FIG. 3B, FIG. 3D and FIG. 3F.

A short description of data set [3]: Intravenous dosing of AG-10 forms, plasma pharmacokinetics by LC-MS/MS. The settings on record: in vivo, dog, 1 mg/kg, the Cmax reported is an extrapolated C0. The protocol: (§1) Mice, Rats or Dogs were intravenously dosed with the zwitterion, Na salt, or HCl salt for of AG-10. Plasma samples from each mouse/rat/dog, as applicable, were measured between 0 and 24 hours after dosing with the specified form of AG-10. After isolation from the animal, each sample (50 μL) was protein precipitated by adding 500 μL 0.1% formamide in acetonitrile to the sample. After addition for the formamide solution, the sample was vortexed and centrifuging at 1400 rpm for 15 min at 4° C. 100 μL of the supernatant was removed and diluted with 100 μL water. 5 μL of the diluted samples was injected for LC-MS/MS analysis.

Data set [4] in a line: Oral dosing of AG-10 forms, plasma pharmacokinetics by LC-MS/MS. The class given is in vivo, Rat. How it is done:
as §1, with “Rats” for “Mice, Rats”, “were orally” for “were intravenously”, “each rat/dog,” for “each mouse/rat/dog,”, “and up to 96” for “and 24”, “diluted sample” for “diluted samples”

The nature of data set [5]: Intravenous dosing of AG-10 forms, plasma pharmacokinetics by LC-MS/MS. The class given is in vivo. The protocol:
as §1

Data set [6] is described as follows: Oral dosing of AG-10 forms, plasma pharmacokinetics by LC-MS/MS. The class given is in vivo, Dog. The settings on record: for Exposure (0-24 h) / Cmax: dog. How it is done: as §1, with “Rats” for “Mice, Rats”, “were orally” for “were intravenously”, “each rat/dog,” for “each mouse/rat/dog,”, “and up to 96” for “and 24”, “diluted sample” for “diluted samples”

Structures are written as SMILES. “And” between values parts separate entries of the source, which are not always exact repeats. Identical values can stand only once.

On to `Cc1n[nH]c(C)c1CCCOc1cc(C(=O)O)ccc1F` [AG-10, 3-(3-(3,5-dimethyl-1H-pyrazol-4-yl)propoxy)-4-fluorobenzoic acid], for which the Bioavailability result in data set [1] (dogs), in data set [1] (mice), in data set [1] (rats) and in data set [2] was “high bioavailability” throughout.
With `Cc1n[nH]c(C)c1CCCOc1cc(C(=O)O)ccc1F.Cl` [HCl salt, 3-[3-(3,5-dimethyl-1H-pyrazol-4-yl)propoxy]-4-fluorobenzoic acid hydrochloride salt], the Cmax in data set [3] was 5960 ng/mL and 20.4 µM; in data set [4] (in vivo, rat, 200 mg/kg), 216000 ng/mL and 741 µM; in data set [5] (in vivo, rat, 1 mg/kg, the Cmax reported is an extrapolated C0, read-out: Cmax (extrapolated C0)) it was 4280 ng/mL and 14.6 µM; in data set [6] (in vivo, 20 mg/kg), 16100 ng/mL and 55.1 µM; in data set [6] (in vivo, 25 mg/kg) it was 25100 ng/mL and 85.8 µM; in data set [6] (in vivo, 60 mg/kg) it was 41800 ng/mL and 143 µM. Moreover, the Cmax in data set [6] (in vivo, 200 mg/kg) was 154000 ng/mL and 528 µM. Also, the “Exposure (0-24 h)” value in data set [4] (rat, 200 mg/kg) was 395,503 ng · h/mL; in data set [6] (20 mg/kg) it was 69,088 ng · h/mL; in data set [6] (25 mg/kg) it was 128,374 ng · h/mL; in data set [6] (60 mg/kg), 155,814 ng · h/mL; in data set [6] (200 mg/kg) it was 1,020,640 ng · h/mL. Moreover, in data set [4] (rats, Table 3 row 3 vs row 1), the “Cmax values as compared to the zwitterion and the Na salt” value was “surprising and significant improvement in Cmax values”. Besides, the “Cmax values as compared to the zwitterion” value in data set [6] (dogs, Table 3 row 6 vs row 4) is “surprising and significant improvement in Cmax values”.
`Cc1n[nH]c(C)c1CCCOc1cc(C(=O)O)ccc1F` [Zwitterion, 3-(3-(3,5-dimethyl-1H-pyrazol-4-yl)propoxy)-4-fluorobenzoic acid]: the Cmax is 26400 ng/mL and 90.3 µM in data set [4] (plasma, rat, 200 mg/kg); 4480 ng/mL and 15.4 µM in data set [5] (mouse, 3 mg/kg); 3090 ng/mL and 10.6 µM in data set [5] (plasma, rat, 3.43 mg/kg, read-out: Cmax); 17500 ng/mL and 60 µM in data set [6] (plasma, 25 mg/kg). In addition, the “Exposure (0-24 h)” value in data set [6] (25 mg/kg) is reported as 89,786 ng · h/mL.
